In brackets after ≈: the same amount, converted by molar mass. Peptide text beside a SMILES is read from it.
Columns and labels:
[1] = test system: MRSA T144; experiment: microbe, parasite or virus in culture; type: cell-based, Staphylococcus aureus; conditions: T144
Summary of the method: (§1)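 Broth microdilution per CLSI 2021 guidelines. Exponential-phase bacteria were diluted 1:1000 into MHB, and 1.5 × 10^6 CFUs/mL suspension was mixed with serially varied peptide concentrations to determine MIC.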

[2] = test system: S. aureus ATCC 29213; experiment: microbe, parasite or virus in culture; type: cell-based, Staphylococcus aureus; conditions: ATCC 29213
Summary of the method: as §1

[3] = test system: MRSA 1518; experiment: microbe, parasite or virus in culture; type: cell-based, Staphylococcus aureus; conditions: 1518
Summary of the method: as §1

[4] = test system: MRSA 1530; experiment: microbe, parasite or virus in culture; type: cell-based, Staphylococcus aureus; conditions: 1530
Summary of the method: as §1

[5] = test system: E. faecalis 1F-1; experiment: microbe, parasite or virus in culture; type: cell-based; conditions: 1F-1
Summary of the method: as §1

[6] = test system: E. faecalis A4 (VRE, VanA); experiment: microbe, parasite or virus in culture; type: cell-based; conditions: A4 (VRE, VanA)
Summary of the method: as §1

[7] = test system: S. enteritidis ATCC 13076; experiment: microbe, parasite or virus in culture; type: cell-based; conditions: ATCC 13076
Summary of the method: as §1

[8] = test system: E. coli ATCC 25922; experiment: microbe, parasite or virus in culture; type: cell-based, Escherichia coli; conditions: ATCC 25922
Summary of the method: as §1

[9] = test system: E. coli B2 (blaNDM-5 + mcr-1); experiment: microbe, parasite or virus in culture; type: cell-based, Escherichia coli; conditions: B2 (blaNDM-5 + mcr-1)
Summary of the method: as §1

[10] = test system: E. coli 1F28 (tet(X4)); experiment: microbe, parasite or virus in culture; type: cell-based, Escherichia coli; conditions: 1F28 (tet(X4))
Summary of the method: as §1

[11] = test system: E. coli B3-1 (tet(X4)); experiment: microbe, parasite or virus in culture; type: cell-based, Escherichia coli; conditions: B3-1 (tet(X4))
Summary of the method: as §1

[12] = test system: E. coli C3 (blaNDM-1); experiment: microbe, parasite or virus in culture; type: cell-based, Escherichia coli; conditions: C3 (blaNDM-1)
Summary of the method: as §1

[13] = test system: E. coli CP131 (mcr-3); experiment: microbe, parasite or virus in culture; type: cell-based, Escherichia coli; conditions: CP131 (mcr-3)
Summary of the method: as §1

[14] = test system: E. coli G6 (blaNDM-5); experiment: microbe, parasite or virus in culture; type: cell-based, Escherichia coli; conditions: G6 (blaNDM-5)
Summary of the method: as §1

[15] = test system: E. coli G92 (mcr-1); experiment: microbe, parasite or virus in culture; type: cell-based, Escherichia coli; conditions: G92 (mcr-1)
Summary of the method: as §1

[16] = test system: P. cibarius HNCF44W (blaNDM-1 + tet(X6)); experiment: organism not typed; type: cell-based
Summary of the method: as §1

[17] = test system: E. coli ATCC 25922; experiment: Resistance development study, serial passages; type: cell-based, Escherichia coli; conditions: 80 serial passages at sub-inhibitory concentration (0.5-fold MIC)
Description: The ability of LI14 peptide to induce resistance was studied as previously described. Resistance to the therapeutically important drugs rifampicin and ciprofloxacin was measured using S. aureus ATCC 29213 and E. coli ATCC 25922 as test strains. The middle and final MICs were monitored after eighty such serial passages exposed to the tested medicines (0.5-fold MIC), and the fold change in MIC increase was recorded.

[18] = test system: E. coli B2; experiment: Galleria mellonella infection model; type: in vivo; conditions: E. coli B2 infected G. mellonella; 50 mg/kg of LI14 at 1 h after infection; 7 days; n = 8
Description: (§2) Galleria mellonella larvae (supplied by Huiyude Biotech Company, Tianjin, China) were separated into six groups (n = 8 biologically independent animals per group) and infection models by injecting MRSA T144 and E. coli B2 cultures, respectively (10 µL, 1.0 × 10^5 CFUs per larvae) into the right posterior gastropoda[42],[48]. The infected larvae were treated by giving LI14 peptide (10, 20, 50 mg/kg), ampicillin/rifampicin (10 mg/kg) or a mixture of LI14 with ampicillin/rifampicin (10 + 10 mg/kg) in the left posterior gastropoda after 1 h infection, with the PBS injection group serving as a control treatment. Within 7 days, survival rates of Galleria mellonella larvae were inspected and recorded.

[19] = test system: MRSA T144; experiment: Galleria mellonella infection model; type: in vivo; conditions: MRSA T144 infected G. mellonella; 50 mg/kg of LI14 at 1 h after infection; 7 days; n = 8
Description: as §2

[20] = test system: E. coli B2; experiment: Neutropenic mouse thigh infection model; type: in vivo, CD-1 mice; conditions: 48 h; for Reduction in CFUs in thigh compared with vehicles: n = 6
Description: (§3) Female CD-1 mice (n = 6 biologically independent animals per group) were first given cyclophosphamide (two consecutive injections of 150 and 100 mg kg^−1 at 4 and 1 day before infection) to construct neutropenia models. The mice’s right thighs were then injected with 100 μL MRSA T144 or E. coli B2 suspensions (10^5 CFUs per mouse). Post-infection of 1 h, 100 μL LI14 peptide (10 or 20 mg/kg), ampicillin/rifampicin (20 mg/kg) or a combination of LI14 with ampicillin/ rifampicin (10 + 20 mg/kg) were given by intraperitoneal injection. All mice were euthanized 48 h after drug administration, and right thigh muscle tissue was removed aseptically, homogenized, serially diluted, and plated on MHA to qualify bacterial loads after overnight incubation at 37 °C.

[21] = test system: MRSA T144; experiment: Neutropenic mouse thigh infection model; type: in vivo, CD-1 mice; conditions: 48 h; for Reduction in CFUs in thigh compared with vehicles: n = 6
Description: as §3

Structure (SMILES): CC[C@H](C)[C@H](NC(=O)[C@H](CCCNC(=N)N)NC(=O)[C@H](CS)NC(=O)[C@H](CC(C)C)NC(=O)[C@H](CCCCN)NC(=O)[C@H](CCCCN)NC(=O)[C@H](CC(C)C)NC(=O)[C@@H](NC(=O)[C@H](CCCNC(=N)N)NC(=O)[C@H](CS)NC(=O)[C@H](CC(C)C)NC(=O)[C@H](CCCCN)NC(=O)[C@H](CCCCN)NC(=O)[C@@H](N)CC(C)C)[C@@H](C)CC)C(N)=O [LI14] (H-LKKLCRILKKLCRI-NH2)
- MIC [1]: 4 µg/mL (≈ 2.32 µM)
- MIC [2]: 8 µg/mL (≈ 4.63 µM)
- MIC [3]: 64 µg/mL (≈ 37.1 µM)
- MIC [4]: 64 µg/mL (≈ 37.1 µM)
- MIC [5]: 64 µg/mL (≈ 37.1 µM)
- MIC [6]: 8 µg/mL (≈ 4.63 µM)
- MIC [7]: 8 µg/mL (≈ 4.63 µM)
- MIC [8]: 8 µg/mL (≈ 4.63 µM)
- MIC [9]: 4 µg/mL
- MIC [10]: 8 µg/mL (≈ 4.63 µM)
- MIC [11]: 8 µg/mL (≈ 4.63 µM)
- MIC [12]: 4 µg/mL (≈ 2.32 µM)
- MIC [13]: 4 µg/mL (≈ 2.32 µM)
- MIC [14]: 4 µg/mL (≈ 2.32 µM)
- MIC [15]: 8 µg/mL (≈ 4.63 µM)
- MIC [16]: 8 µg/mL (≈ 4.63 µM)
- Increase in MIC after serial passages [17]: 8 fold
- Survival rate of larvae [18]: 75%
- Survival rate of larvae [19]: 100%
- Bacterial load in thigh ([20]; LI14 10 mg/kg i.p., animal 1): 5.99 Log10CFUs/thigh
- Bacterial load in thigh ([20]; LI14 10 mg/kg i.p., animal 2): 5.91 Log10CFUs/thigh
- Bacterial load in thigh ([20]; LI14 10 mg/kg i.p., animal 3): 6.58 Log10CFUs/thigh
- Bacterial load in thigh ([20]; LI14 10 mg/kg i.p., animal 4): 6.66 Log10CFUs/thigh
- Bacterial load in thigh ([20]; LI14 10 mg/kg i.p., animal 5): 7.36 Log10CFUs/thigh
- Bacterial load in thigh ([20]; LI14 10 mg/kg i.p., animal 6): 7.31 Log10CFUs/thigh
- Reduction in CFUs in thigh compared with vehicles ([20]; LI14 10 mg/kg i.p.): ~ 2 log10
- Bacterial load in thigh ([20]; LI14 20 mg/kg i.p., animal 1): 4.93 Log10CFUs/thigh
- Bacterial load in thigh ([20]; LI14 20 mg/kg i.p., animal 2): 4.99 Log10CFUs/thigh
- Bacterial load in thigh ([20]; LI14 20 mg/kg i.p., animal 3): 4.71 Log10CFUs/thigh
- Bacterial load in thigh ([20]; LI14 20 mg/kg i.p., animal 4): 4.79 Log10CFUs/thigh
- Bacterial load in thigh ([20]; LI14 20 mg/kg i.p., animal 5): 5.69 Log10CFUs/thigh
- Bacterial load in thigh ([20]; LI14 20 mg/kg i.p., animal 6): 5.66 Log10CFUs/thigh
- Reduction in CFUs in thigh compared with vehicles ([20]; LI14 20 mg/kg i.p.): 4 log10
- Bacterial load in thigh ([21]; LI14 10 mg/kg i.p., animal 1): 6.18 Log10CFUs/thigh
- Bacterial load in thigh ([21]; LI14 10 mg/kg i.p., animal 2): 6.30 Log10CFUs/thigh
- Bacterial load in thigh ([21]; LI14 10 mg/kg i.p., animal 3): 5.92 Log10CFUs/thigh
- Bacterial load in thigh ([21]; LI14 10 mg/kg i.p., animal 4): 5.83 Log10CFUs/thigh
- Bacterial load in thigh ([21]; LI14 10 mg/kg i.p., animal 5): 7.15 Log10CFUs/thigh
- Bacterial load in thigh ([21]; LI14 10 mg/kg i.p., animal 6): 7.28 Log10CFUs/thigh
- Reduction in CFUs in thigh compared with vehicles ([21]; LI14 10 mg/kg i.p.): ~ 2 log10
- Bacterial load in thigh ([21]; LI14 20 mg/kg i.p., animal 1): 4.32 Log10CFUs/thigh
- Bacterial load in thigh ([21]; LI14 20 mg/kg i.p., animal 2): 4.36 Log10CFUs/thigh
- Bacterial load in thigh ([21]; LI14 20 mg/kg i.p., animal 3): 4.77 Log10CFUs/thigh
- Bacterial load in thigh ([21]; LI14 20 mg/kg i.p., animal 4): 4.61 Log10CFUs/thigh
- Bacterial load in thigh ([21]; LI14 20 mg/kg i.p., animal 5): 5.45 Log10CFUs/thigh
- Bacterial load in thigh ([21]; LI14 20 mg/kg i.p., animal 6): 5.51 Log10CFUs/thigh
- Reduction in CFUs in thigh compared with vehicles ([21]; LI14 20 mg/kg i.p.): 4 log10

Reference: paper PMC9452538, “The antimicrobial peptide LI14 combats multidrug-resistant bacterial infections” (Communications Biology, 2022)
